Assay results taken from patent publication US20210078988A1, “MODULATORS OF INDOLEAMINE 2,3-DIOXYGENASE” (GLAXOSMITHKLINE INTELLECTUAL PROPERTY DEVELOPMENT LIMITED, priority 2017, published 2021).

Molecular target: T1, indoleamine 2, 3-dioxygenase (IDO1) (Homo sapiens, UniProt P14902)
T1 construct: human peripheral blood mononuclear cells (PBMC) (PB003F; host or cells: human PBMC stimulated with IFN-gamma and LPS
Assay: PBMC IDO1 assay (kynurenine detection via mass spectrometry)
Format: cell-based
Details: human PBMC stimulated with IFN-γ and LPS, 2 days, kynurenine by mass spectrometry; read-out: IDO1 PBMC pIC50 (converted)
Summary of the method: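 Kynurenine output, read by RapidFire mass spectrometry as a ratio to internal standard, reflected IDO1 activity in human PBMCs induced with 100 ng/ml IFN-γ plus 50 ng/ml LPS and dosed with compound (11 points, 3-fold) over 2 days. Cytotoxicity was tracked by CellTiter-Glo; XC50 values came from Hill-slope fits.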

T1 sequence (P14902 whole entry): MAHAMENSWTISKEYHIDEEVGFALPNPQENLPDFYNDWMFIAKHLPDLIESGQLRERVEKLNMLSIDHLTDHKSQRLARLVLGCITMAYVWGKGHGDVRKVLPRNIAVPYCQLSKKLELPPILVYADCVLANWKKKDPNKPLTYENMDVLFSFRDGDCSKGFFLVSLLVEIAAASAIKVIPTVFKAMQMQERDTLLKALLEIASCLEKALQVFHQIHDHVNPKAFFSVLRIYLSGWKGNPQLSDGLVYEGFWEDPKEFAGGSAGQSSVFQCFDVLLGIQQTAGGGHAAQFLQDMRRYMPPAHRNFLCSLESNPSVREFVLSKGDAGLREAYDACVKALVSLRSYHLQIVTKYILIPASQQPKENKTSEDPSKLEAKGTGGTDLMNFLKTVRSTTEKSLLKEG

Structure (SMILES)	IC50 [µM]
CC(C)(C)OC(=O)N1CCC(CC(NC(=O)c2ccc3c(c2)OCO3)c2ccccc2)CC1 (centres unmarked) [Example 175, tert-butyl 4-(2-(benzo[d][1,3]dioxole-5-carboxamido)-2-phenylethyl)piperidine-1-carboxylate]	0.126
CC(C)(C)OC(=O)N1CCC(CC(NC(=O)c2ccc(F)cc2)c2ccc(=O)n(Cc3ccccc3)c2)CC1 (centres unmarked) [Example 176, tert-butyl 4-(2-(1-benzyl-6-oxo-1,6-dihydropyridin-3-yl)-2-(4-fluorobenzamido)ethyl)piperidine-1-carboxylate]	0.126
CCOC(=O)N1CCC(C[C@@H](NC(=O)c2ccc(Cl)s2)C2CC2)CC1 [Example 177, (R)-ethyl 4-(2-(5-chlorothiophene-2-carboxamido)-2-cyclopropylethyl)piperdine-1-carboxylate]	0.126
CSc1ccc(C(=O)NC(CC2CCN(C(=O)OC(C)(C)C)CC2)c2ccccc2)cc1 (centres unmarked) [Example 178, tert-butyl 4-(2-(4-(methylthio)benzamido)-2-phenylethyl)piperidine-1-carboxylate]	0.126
Cc1csc(C(=O)NC(CC2CCN(C(=O)OC(C)(C)C)CC2)c2ccccc2)c1 (centres unmarked) [Example 179, tert-butyl 4-(2-(4-methylthiophene-2-carboxamido)-2-phenylethyl)piperidine-1-carboxylate]	0.126
C=Cc1ccc(C(=O)NC(CC2CCN(C(=O)OC(C)(C)C)CC2)c2ccccc2)s1 (centres unmarked) [Example 180, tert-butyl 4-(2-phenyl-2-(5-vinylthiophene-2-carboxamido)ethyl)piperidine-1-carboxylate]	0.126
CC(C)(C)OC(=O)N1CCC(CC(NC(=O)c2cccc3cc[nH]c23)c2ccccc2)CC1 (centres unmarked) [Example 181, tert-butyl 4-(2-(1H-indole-7-carboxamido)-2-phenylethyl)piperidine-1-carboxylate]	0.158
CC(C)(C)OC(=O)N1CCC(CC(NC(=O)c2cc3ccccc3s2)c2ccccc2)CC1 (centres unmarked) [Example 182, tert-butyl 4-(2-(benzo[b]thiophene-2-carboxamido)-2-phenylethyl)piperidine-1-carboxylate]	0.158
COc1ccc([C@@H](CC2CCN(C(=O)OC(C)(C)C)CC2)NC(=O)c2ccc(F)cc2)cn1 [Example 183, (R)-tert-butyl 4-(2-(4-fluorobenzamido)-2-(6-methoxypyridin-3-yl)ethyl)piperidine-1-carboxylate]	0.158
CC(C)NC(=O)N1CCC(CC(NC(=O)c2ccc(Cl)cc2)c2ccccc2)CC1 (centres unmarked) [Example 184, 4-(2-(4-chlorobenzamido)-2-phenylethyl)-N-isopropylpiperidine-1-carboxamide]	0.158
O=C(NC(CC1CCN(C(=O)OC2COC2)CC1)c1ccccc1)c1ccc(Cl)cc1 (centres unmarked) [Example 185, oxetan-3-yl 4-(2-(4-chlorobenzamido)-2-phenylethyl)piperidine-1-carboxylate]	0.158
O=C(NC(CC1CCN(C(=O)OC2CCOCC2)CC1)c1ccccc1)c1ccc(Cl)cc1 (centres unmarked) [Example 186, tetrahydro-2H-pyran-4-yl 4-(2-(4-chlorobenzamido)-2-phenylethyl)piperidine-1-carboxylate]	0.158
CC(C)(C)COC(=O)N1CCC(CC(NC(=O)c2ccc(Cl)cc2)c2ccccc2)CC1 (centres unmarked) [Example 187, neopentyl 4-(2-(4-chlorobenzamido)-2-phenylethyl)piperidine-1-carboxylate]	0.158
CC(C)OC(=O)N1CCC(C[C@@H](NC(=O)c2ccc(Cl)s2)C2CC2)CC1 [Example 188, (R)-isopropyl 4-(2-(5-chlorothiophene-2-carboxamido)-2-cyclopropylethyl)piperidine-1-carboxylate]	0.158
CC(C)(C)OC(=O)N1CCC(CC(NC(=O)c2ccc(C#N)nc2)c2ccccc2)CC1 (centres unmarked) [Example 189, tert-butyl 4-(2-(6-cyanonicotinamido)-2-phenylethyl)piperidine-1-carboxylate]	0.2
CC(C)(C)OC(=O)N1CCC(CC(NC(=O)C2CCCCC2)c2ccccc2)CC1 (centres unmarked) [Example 190, tert-butyl 4-(2-(cyclohexanecarboxamido)-2-phenylethyl)piperidine-1-carboxylate]	0.2
Cc1ncc(C(=O)NC(CC2CCN(C(=O)OC(C)(C)C)CC2)c2ccccc2)s1 (centres unmarked) [Example 191, tert-butyl 4-(2-(2-methylthiazole-5-carboxamido)-2-phenylethyl)piperidine-1-carboxylate]	0.2
CCCOc1ccc(C(=O)NC(CC2CCN(C(=O)OC(C)(C)C)CC2)c2ccccc2)cc1 (centres unmarked) [Example 192, tert-butyl 4-(2-phenyl-2-(4-propoxybenzamido)ethyl)piperidine-1-carboxylate]	0.2
O=C(NC(CC1CCN(S(=O)(=O)C2CCCC2)CC1)c1ccccc1)c1ccc(Cl)cc1 (centres unmarked) [Example 193, 4-chloro-N-(2-(1-(cyclopentylsulfonyl)piperidin-4-yl)-1-phenylethyl)benzamide]	0.2

Structure (SMILES)	IC50 [µM]
CC(C)(C)OC(=O)N1CCC(CC(NC(=O)c2ccccc2O)c2ccccc2)CC1 (centres unmarked) [Example 194, tert-butyl 4-(2-(2-hydroxybenzamido)-2-phenylethyl)piperidine-1-carboxylate]	0.251
CC(C)(C)OC(=O)N1CCC(CC(NC(=O)c2ccc(O)cc2)c2ccccc2)CC1 (centres unmarked) [Example 195, tert-butyl 4-(2-(4-hydroxybenzamido)-2-phenylethyl)piperidine-1-carboxylate]	0.251
CC(C)(C)OC(=O)N1CCC(CC(NC(=O)c2ccc(O)c(F)c2)c2ccccc2)CC1 (centres unmarked) [Example 196, tert-butyl 4-(2-(3-fluoro-4-hydroxybenzamido)-2-phenylethyl)piperidine-1-carboxylate]	0.251
O=C(NC(CC1CCN(S(=O)(=O)N2CCCCC2)CC1)c1ccccc1)c1ccc(Cl)cc1 (centres unmarked) [Example 197, 4-chloro-N-(1-phenyl-2-(1-(piperidin-1-ylsulfonyl)piperidin-4-yl)ethyl)benzamide]	0.251
CC(C)(C)OC(=O)N1CCC(CC(NC(=O)c2ccc(F)cc2)c2nc(C3CCCC3)no2)CC1 (centres unmarked) [Example 198, tert-butyl 4-(2-(3-cyclopentyl-1,2,4-oxadiazol-5-yl)-2-(4-fluorobenzamido)ethyl)piperidine-1-carboxylate]	0.251
CC(C)(C)OC(=O)N1CCC(CC(NC(=O)c2cccc(Cl)c2)c2ccccc2)CC1 (centres unmarked) [Example 199, tert-butyl 4-(2-(3-chlorobenzamido)-2-phenylethyl)piperidine-1-carboxylate]	0.316
CC(C)(C)OC(=O)N1CCC(CC(NC(=O)Nc2ccc(F)cc2)c2ccccc2)CC1 (centres unmarked) [Example 200, tert-butyl 4-(2-(3-(4-fluorophenyl)ureido)-2-phenylethyl)piperidine-1-carboxylate]	0.316
CC(C)(C)OC(=O)N1CCC(CC(NC(=O)C23CCC(CC2)CC3)c2ccccc2)CC1 (centres unmarked) [Example 201, tert-butyl 4-(2-(bicyclo[2.2.2]octane-1-carboxamido)-2-phenylethyl)piperidine-1-carboxylate]	0.316
COCCOc1ccc(C(CC2CCN(C(=O)OC(C)(C)C)CC2)NC(=O)c2ccc(F)cc2)cn1 (centres unmarked) [Example 202, tert-butyl 4-(2-(4-fluorobenzamido)-2-(6-(2-methoxyethoxy)pyridin-3-yl)ethyl)piperidine-1-carboxylate]	0.316
CC(C)(C)OC(=O)N1CCC(CC(NC(=O)c2ccc(F)c(Cl)c2)c2ccccc2)CC1 (centres unmarked) [Example 203, tert-butyl 4-(2-(3-chloro-4-fluorobenzamido)-2-phenylethyl)piperidine-1-carboxylate]	0.316
Cc1ccc(C(=O)NC(CC2CCN(C(=O)OC(C)(C)C)CC2)c2ccccc2)o1 (centres unmarked) [Example 204, tert-butyl 4-(2-(5-methylfuran-2-carboxamido)-2-phenylethyl)piperidine-1-carboxylate]	0.316
CC(C)(C)OC(=O)N1CCC(CC(NC(=O)c2ccc(Cl)c(Cl)c2)c2ccccc2)CC1 (centres unmarked) [Example 205, tert-butyl 4-(2-(3,4-dichlorobenzamido)-2-phenylethyl)piperidine-1-carboxylate]	0.316
COC(=O)N1CCC(C[C@@H](NC(=O)c2ccc(Cl)s2)C2CC2)CC1 [Example 206, (R)-methyl 4-(2-(5-chlorothiophene-2-carboxamido)-2-cyclopropylethyl)piperidine-1-carboxylate]	0.316
CC(C)(C)OC(=O)N1CCC(CC(NC(=O)c2ccc(F)cc2)c2cccnc2)CC1 (centres unmarked) [Example 207, tert-butyl 4-(2-(4-fluorobenzamido)-2-(pyridin-3-yl)ethyl)piperidine-1-carboxylate]	0.398
CC(C)(C)OC(=O)N1CCC(CC(NC(=O)c2ccc(F)cc2)c2ccncc2)CC1 (centres unmarked) [Example 208, tert-butyl 4-(2-(4-fluorobenzamido)-2-(pyridin-4-yl)ethyl)piperidine-1-carboxylate]	0.398
CC(C)(C)OC(=O)N1CCC(CC(NC(=O)C2CCCCCC2)c2ccccc2)CC1 (centres unmarked) [Example 209, tert-butyl 4-(2-(cycloheptanecarboxamido)-2-phenylethyl)piperidine-1-carboxylate]	0.398
CC(C)(C)CC(=O)NC(CC1CCN(C(=O)OC(C)(C)C)CC1)c1ccccc1 (centres unmarked) [Example 210, tert-butyl 4-(2-(3,3-dimethylbutanamido)-2-phenylethyl)piperidine-1-carboxylate]	0.398
CC(C)(C)OC(=O)N1CCC(CC(NC(=O)c2cc(F)ccc2F)c2ccccc2)CC1 (centres unmarked) [Example 211, tert-butyl 4-(2-(2,5-difluorobenzamido)-2-phenylethyl)piperidine-1-carboxylate]	0.398
CC(C)c1ccc(C(=O)NC(CC2CCN(C(=O)OC(C)(C)C)CC2)c2ccccc2)cc1 (centres unmarked) [Example 212, tert-butyl 4-(2-(4-isopropylbenzamido)-2-phenylethyl)piperidine-1-carboxylate]	0.398
